For five compounds, ring closure, overall yield results are on record in paper PMC9021566, “Design, Synthesis, and Antitumor Activity Study of All-Hydrocarbon-Stapled B1-Leu Peptides” (Frontiers in Chemistry, 2022).

A short description of series [1]: On-resin ring-closing olefin metathesis (all-hydrocarbon stapling, S5/S5 i,i+4 or R8/S5 i,i+7), first-generation Grubbs catalyst (3 equiv); then Fmoc removal, TFA cleavage, RP-HPLC. Particulars: the molecule shown is the open-chain precursor, 25.0 °C, 4.0 h.
The conditions of series [2]: the molecule shown is the open-chain precursor, resin.
Setting [3] is: 33-membered ring, 1,2-dichloroethane (dry).

Molecules are shown by their SMILES. Like-named read-outs stand apart in the source and are kept apart here.

As for `C=CCCCCCC[C@@](C)(NC(=O)[C@@H](NC(=O)OCC1c2ccccc2-c2ccccc21)C(C)C)C(=O)N[C@@H](CCCNC(=N)NS(=O)(=O)c1c(C)c(C)c2c(c1C)CC(C)(C)O2)C(=O)N[C@@H](Cc1ccccc1)C(=O)N[C@@H](CCCCNC(=O)OC(C)(C)C)C(=O)N[C@@H](CCCCNC(=O)OC(C)(C)C)C(=O)N[C@@H](Cc1ccccc1)C(=O)N[C@@H](Cc1ccccc1)C(=O)N[C@@](C)(CCCC=C)C(=O)N[C@@H](CCCCNC(=O)OC(C)(C)C)C(=O)N[C@@H](CC(C)C)C(=O)N[C@@H](CCCCNC(=O)OC(C)(C)C)C(=O)N[C@@H](CCCCNC(=O)OC(C)(C)C)C(=O)N[C@@H](CC(C)C)C(=O)N[C@H](C(N)=O)C(C)C`, in series [1] (setting [3]), the ring closure, overall yield worked out at 62%.

Take `C=CCCCCCC[C@@](C)(NC(=O)[C@H](CCCCNC(=O)OC(C)(C)C)NC(=O)[C@H](Cc1ccccc1)NC(=O)[C@H](CCCNC(=N)NS(=O)(=O)c1c(C)c(C)c2c(c1C)CC(C)(C)O2)NC(=O)[C@H](CCCCNC(=O)OC(C)(C)C)NC(=O)[C@@H](NC(=O)OCC1c2ccccc2-c2ccccc21)C(C)C)C(=O)N[C@@H](Cc1ccccc1)C(=O)N[C@@H](Cc1ccccc1)C(=O)N[C@@H](CCCNC(=N)NS(=O)(=O)c1c(C)c(C)c2c(c1C)CC(C)(C)O2)C(=O)N[C@@H](CCCCNC(=O)OC(C)(C)C)C(=O)N[C@@H](CC(C)C)C(=O)N[C@@H](CCCCNC(=O)OC(C)(C)C)C(=O)N[C@@](C)(CCCC=C)C(=O)N[C@@H](CC(C)C)C(=O)N[C@H](C(N)=O)C(C)C`: the ring closure, overall yield in series [1] (setting [3]) was 62%. `C=CCCCCCC[C@@](C)(NC(=O)[C@H](Cc1ccccc1)NC(=O)[C@H](CCCNC(=N)NS(=O)(=O)c1c(C)c(C)c2c(c1C)CC(C)(C)O2)NC(=O)[C@H](CCCCNC(=O)OC(C)(C)C)NC(=O)[C@@H](NC(=O)OCC1c2ccccc2-c2ccccc21)C(C)C)C(=O)N[C@@H](CCCCNC(=O)OC(C)(C)C)C(=O)N[C@@H](Cc1ccccc1)C(=O)N[C@@H](Cc1ccccc1)C(=O)N[C@@H](CCCNC(=N)NS(=O)(=O)c1c(C)c(C)c2c(c1C)CC(C)(C)O2)C(=O)N[C@@H](CCCCNC(=O)OC(C)(C)C)C(=O)N[C@@H](CC(C)C)C(=O)N[C@@](C)(CCCC=C)C(=O)N[C@@H](CCCCNC(=O)OC(C)(C)C)C(=O)N[C@@H](CC(C)C)C(=O)N[C@H](C(N)=O)C(C)C` had a ring closure, overall yield in series [2] (33-membered ring) of 65%. Take `C=CCCC[C@](C)(NC(=O)[C@H](CCCCNC(=O)OC(C)(C)C)NC(=O)[C@H](Cc1ccccc1)NC(=O)[C@H](CCCNC(=N)NS(=O)(=O)c1c(C)c(C)c2c(c1C)CC(C)(C)O2)NC(=O)[C@](C)(CCCC=C)NC(=O)[C@@H](NC(=O)OCC1c2ccccc2-c2ccccc21)C(C)C)C(=O)N[C@@H](Cc1ccccc1)C(=O)N[C@@H](Cc1ccccc1)C(=O)N[C@@H](CCCNC(=N)NS(=O)(=O)c1c(C)c(C)c2c(c1C)CC(C)(C)O2)C(=O)N[C@@H](CCCCNC(=O)OC(C)(C)C)C(=O)N[C@@H](CC(C)C)C(=O)N[C@@H](CCCCNC(=O)OC(C)(C)C)C(=O)N[C@@H](CCCCNC(=O)OC(C)(C)C)C(=O)N[C@@H](CC(C)C)C(=O)N[C@H](C(N)=O)C(C)C`: the ring closure, overall yield in series [2] (21-membered ring) was 65%.

As to `C=CCCC[C@](C)(NC(=O)[C@H](Cc1ccccc1)NC(=O)[C@H](Cc1ccccc1)NC(=O)[C@H](CCCCNC(=O)OC(C)(C)C)NC(=O)[C@H](CCCCNC(=O)OC(C)(C)C)NC(=O)[C@H](Cc1ccccc1)NC(=O)[C@H](CCCNC(=N)NS(=O)(=O)c1c(C)c(C)c2c(c1C)CC(C)(C)O2)NC(=O)[C@H](CCCCNC(=O)OC(C)(C)C)NC(=O)[C@@H](NC(=O)OCC1c2ccccc2-c2ccccc21)C(C)C)C(=O)N[C@@H](CCCCNC(=O)OC(C)(C)C)C(=O)N[C@@H](CC(C)C)C(=O)N[C@@H](CCCCNC(=O)OC(C)(C)C)C(=O)N[C@@](C)(CCCC=C)C(=O)N[C@@H](CC(C)C)C(=O)N[C@H](C(N)=O)C(C)C`, the ring closure, overall yield in series [1] (21-membered ring, 1,2-dichloroethane (dry)) is 68%.
